In brackets after ≈: the same amount, converted by molar mass. Where two headings read alike, the source gives them in different places. Each block holds one molecule with its values, some of them ahead of it.
Key:
C. acnes (ATCC No. 6919) = experiment: Growth inhibition of C. acnes in Fluid Thioglycollate culture tubes; format: cell-based, Corynebacterium acnes; conditions: for MIC: Cutibacterium acnes, read-out: Inhibitory Concentration at 72 Hours; for Effect on growth of C. acnes: at 200 μg/ml.
Experimental: Culture tubes are prepared containing 10 ml. of freshly prepared Difco Fluid Thioglycollate medium with agar and indicator. […] Each tube is inoculated with 0.2 ml. of a 48 hour culture of C. acnes (ATCC No. 6919), and the tubes are inspected at 24 hour intervals. Incubation at 37° C.

[1] = Double-blind crossover study of 5% oleic acid diethanolamide gel on the face, forehead surface lipids; format: in vivo, human subjects
Text: The subjects were selected on the basis of having a higher than 20 % free fatty acid content in their individual total sebum. None were on systemic antibiotic therapy during the course of this study.
The subjects were instructed to wash three times daily with Ivory soap, immediately after rinsing and drying the face to apply sufficient medication (active agent or placebo) to cover the entire face with the exception of the eye and cheekbone areas, and to gently massage the medication into the skin. Each treatment was continued for the last 6 weeks of the study, no medication being used, however, during the two-week no-treatment period. No other therapy was permitted on the face during the course of the study. No medicated soaps or shampoos, oily hair dressings or any hair sprays were permitted. Cosmetics other than lipstick and eyeshadow were not to be applied on the days of sebum collection. On days of sebum collection, the forehead was not to be washed, wiped, or touched in the 6 hours between the time of cleansing and the time of sebum collection.
Twice a week during the first two weeks of the study, a forehead sample of surface lipids were obtained from each subject and measured for total weight and free fatty acids. No medication or placebo therapy was employed during this two-week period. These samples from each subject constitute the baseline data for this study. Twice a week for the next 6 weeks, further surface lipid samples were taken from each subject and analyzed. In all cases, the surface lipid samples were collected by drawing sebum from both the left and right sides of the subject's forehead.

[2] = molecular target: T1, crude enzyme from cultures of Corynebacterium acnes (ATCC No. 6919) (lipolytic enzymes) (Cutibacterium acnes, UniProt Q59644); experiment: Inhibition of triolein hydrolysis by Corynebacterium acnes lipolytic enzyme (radiolabelled triolein, TLC of free oleic acid); format: biochemical; conditions: 60 minutes at room temperature, pH 7.1 phosphate buffer, triolein 2mM; read-out: Concentration Causing 50% Inhibition of Triolein (2mM) Hydrolysis
T1 construct: crude ethanol-acetic acid precipitate of three-day cultures, Sephadex G-25 and G-100 fractions
Experimental: A 1 ml. aliquot of glyceryl trioleate-(9,10)T is separated on TLC (silica gel) in hexane-ether-acetic acid (70:30:1) and the area corresponding to pure triolein is eluted. The radioactive material is diluted with cold, previously purified triolein (8.8639 g.) in 500 ml. of benzene. The resulting solution is 20mM in triolein.
The crude enzyme prepared by ethanol-acetic acid precipitation from three day cultures of Corynebacterium acnes (ATCC No. 6919) is passed successively through Sephadex G-25 and G-100 columns, and the concentrate is diluted to 250 ml. for use in the assay described below.
An emulsion is prepared by evaporating 5.70 ml. of the benzene solution, prepared in Example 1 above; 6 ml. of 10% gum arabic in water and 3.4 ml. of 0.05M phosphate buffer (pH 7.1) are added, and the mixture is sonicated for three 20 second intervals. Aliquots (0.7 ml.) containing […] emulsified triolein are added to each of 10 1/6 dram vials for each compound to be assayed.
Vial No. 1 receives an additional 0.3 ml. buffer at time 0, and acts as 0 control. […]
The hydrolysis is allowed to proceed for 60 minutes at room temperature, after which time, the vials are transferred to a silicone oil bath and maintained at 95° C. […] The areas corresponding to free oleic acid (after visualization with iodine vapor) are scraped directly into scintillation vials and counted. […]

[3] = ATCC6919, 72 hours, 37° C., Difco Fluid Thioglycollate medium
[4] = 5% gel of Example 8, topical three times daily, two-week treatment, 21 subjects

T1 sequence (Q59644 entry or part of it): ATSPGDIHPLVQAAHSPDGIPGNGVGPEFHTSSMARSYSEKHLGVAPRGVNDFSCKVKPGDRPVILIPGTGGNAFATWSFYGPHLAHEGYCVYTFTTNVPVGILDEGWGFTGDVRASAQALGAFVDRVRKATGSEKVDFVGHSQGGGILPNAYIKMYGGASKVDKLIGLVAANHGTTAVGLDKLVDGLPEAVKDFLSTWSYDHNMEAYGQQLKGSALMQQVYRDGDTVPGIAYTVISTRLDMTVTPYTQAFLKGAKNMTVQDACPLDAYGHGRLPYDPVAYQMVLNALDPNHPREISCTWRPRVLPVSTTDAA

MIC (C. acnes (ATCC No. 6919); [3]): ~12.5 µg/mL (≈ 33.6 µM)
Molecule: CC(C)CCCCCCCCCCCCCCC(=O)N(CCO)CCO [Isostearic acid diethanolamide]

Molecule: CCCCCCCCCCCC(=O)N(CCO)CCO [Lauric acid diethanolamide]
MIC (C. acnes (ATCC No. 6919); ATCC6919, 72 h): ~12.5 µg/mL (≈ 43.5 µM)

MIC (C. acnes (ATCC No. 6919); [3]): ~6.25 µg/mL (≈ 19.8 µM)
Molecule: CCCCCCCCCCCCCC(=O)N(CCO)CCO [Myristic acid diethanolamide]

Molecule: CCCCCCCC/C=C\CCCCCCCC(=O)N(CCO)CCO [Oleic acid diethanolamide]
free fatty acid values, average lowering versus placebo [1, 4]: 11%
total sebum values, average lowering versus placebo [1, 4]: 8%
carryover effect upon total sebum level ([1]; 5% gel, crossover study): no indication of a carryover effect
overall reduction of average free fatty acid content, end of active treatment versus immediately prior to treatment ([1]; 5% gel, two-week treatment): approximately 20%
Maximum reduction in free fatty acid levels, subject two ([1]; 5% gel, two-week treatment, subject two): 78%
duration of carryover effect upon free fatty acid levels after termination of use ([1]; subjects given active agent before placebo): at least two weeks
MIC (C. acnes (ATCC No. 6919); [3]): ~12.5 µg/mL (≈ 33.8 µM)

Molecule: CCCCCCCC/C=C\CCCCCCCC(=O)O [Oleic acid, reference compound]
Effect on growth of C. acnes (C. acnes (ATCC No. 6919); 72 hours): growth stimulatory

MIC (C. acnes (ATCC No. 6919); [3]): ~6.25 µg/mL (≈ 18.2 µM)
Molecule: CCCCCCCCCCCCCCCC(=O)N(CCO)CCO [Palmitic acid diethanolamide]

Molecule: CCCCCCCC/C=C\CCCCCCCC(=O)OCC(COC(=O)CCCCCCC/C=C\CCCCCCCC)OC(=O)CCCCCCC/C=C\CCCCCCCC [Triolein, reference compound]
Effect on growth of C. acnes (C. acnes (ATCC No. 6919); 72 hours): growth stimulatory

MIC (C. acnes (ATCC No. 6919); [3]): > 300 µg/mL
Molecule: C=CCCCCCCCCC(=O)N(CCO)CCO [Undecylenic diethanolamide, reference compound]

Molecule: N-morpholinooleamide
IC50 [2]: 700 µM

— patent US3987198A, “Method for lowering the free fatty acid content in sebum using certain fatty acid amides” (Syntex (U.S.A.) Inc., priority 1975, dated 1976)
